Type in all cases: cell-based
Experiment [1] relates to Primary human epidermal keratinocytes, HeKa. The experiment can be described thus: HeKa cytokine release (IL-8). The following applies: read-out: HeKa cytokine release (IL-8) Rel EC50 range. The protocol:
Primary human epidermal keratinocytes, HeKa, were seeded (10.000 cells/well) in 96-well plates the day before the assay. Test compounds were diluted in DMSO (dimethyl sulfoxide) and further diluted in assay medium and pipetted into wells of 96 well-plates containing HeKa cells. The plates were incubated for 6 h at 37° C. in humidified air with 5% CO2. Plates were centrifuged briefly to spin down cells at 4° C., the supernatant was removed and analysed by Meso Scale Discovery (MSD) 4-spot cytokine assay (Pro-inflammatory II Ultra Sensitive kit, MSD, MD, USA). The MSD assay employs a sandwich immunoassay format where capture antibodies are coated in a patterned array on the bottom of the wells of a 4-Spot-Multi-MSD plate. Standard samples were incubated in the MULTI-SPOT plates as well, and the cytokine (IL-8) binds to its corresponding capture antibody spot. The cytokine level was quantitated on a SECTOR™ Imager using a cytokine-specific Detection Antibody labelled with MSD SULFO-TAG™ reagent.
Test compound titration curves were fitted to a four-parameter sigmoidal curve after normalizing the effect of the test compound to the effect of the positive control (1.5×10^−7 M PEP0005). Rel EC50 denotes the concentration of test compound producing an effect that is midway between the fitted top and bottom.

Experiment [2] deals with PMN's (polymorphonuclear leukocytes). The experiment can be described thus: Neutrophil oxidative burst. The conditions noted are these: normalized to 5×10^−7 M PEP0005. The procedure:
PMN's (polymorphonuclear leukocytes) were isolated and purified from fresh buffy coats by sequential sedimentation, density centrifugation and lysis of contaminating erythrocytes. Buffy coats were incubated with 2% methocel for 30-45 min to differentially sediment red blood cells. The leukocyte-rich supernatant was transferred to lymphoprep tubes to remove mononuclear cells by density centrifugation (400×g, 30 min). The pellet was resuspended and any remaining erythrocytes lysed using 0.2% NaCl for 30 sec before restoring isotonicity by the addition of 1.2% NaCl. This step was repeated until the cell pellet appears relatively free of red blood cells. Cells were resuspended in DPBS (Dulbecco's Phosphate Buffered Saline) (w.o. Ca^2+, Mg^2+) and the concentration adjusted to 1.4×10^6 cells/ml in HBSS (Hanks Balanced Salt solution) (w Ca^2+, Mg^2±) containing 0.1% BSA (Bovine Serum Albumin) and 5 mM glucose just prior to assay initiation. Titrated reference and test compounds were pre-mixed with HE (Hydroethidine) (10 μM final assay concentration) before addition to 96-well plates containing 2.5×10^5 cells. Following 40 min incubation at RT, changes in the respiratory burst was estimated by measuring fluorescence at 579 nm (excitation: 485 nm) using an Envision plate reader.
Test compound titration curves were fitted to a four-parameter sigmoidal curve after normalizing the effect of the test compound to the effect of the positive control (5×10^−7 M PEP0005). Rel EC50 denotes the concentration of test compound producing an effect that is midway between the fitted top and bottom. Abs EC50 is the concentration of test compound that provokes a response corresponding to 50% of the maximal effect associated with the positive control (5×10^−7 M PEP0005).

The subject of experiment [3] is HeLa cells. The experiment can be described thus: Necrosis assay. The following applies: Homo sapiens, HeLa, 0.5 h, read-out: HeLa necrosis EC50 range. The protocol: HeLa cells (ATCC CCL-002) were grown in minimal essential medium (Invitrogen catalog no. 42360) containing 10% fetal bovine serum, 100 IU/ml penicillin and 100 μg/ml streptomycin. 4,000-6,000 cells were seeded into 96-well black ViewPlates-plates, clear bottom, (Perkin Elmer) in 100 μl medium and incubated overnight. Compounds were dissolved and pre-diluted in DMSO in 96-well polypropylene plates (Greiner) in a concentration range of 15 μM to 600 μM. At the time of the experiment cell plates were placed on heating blocks at 37° C., medium was removed and 40 μl fresh, pre-warmed medium was added per well. Cells were incubated for 15 min before addition of compounds. In parallel, 3 μl of compounds were diluted with 197 μl growth medium on a Tecan freedom-EVO pipetting station using 250 μl/s pipetting speed, in order to ensure effective mixing of the highly concentrated compound solutions with the aqueous phase. These pre-dilution plates were then equilibrated on heating blocks at 37° C. for 10 min. 80 μl pre-diluted compound were transferred manually to the corresponding wells containing HeLa cells yielding compound concentrations of 10 μM to 400 μM. Control conditions were 1% DMSO in growth medium (100% viability) and 400 μM ingenol mebutate in growth medium (0% viability). Plates were incubated on the heating blocks at 37° C. for 30 min. At the end of the incubation 10 μl PrestoBlue reagent (Invitrogen) were added to each well, plates were sealed with black seal, followed by incubation at 37° C. for 10 min with gentle shaking (150 rpm). Subsequently, plates were placed at room temperature for 20-30 min. Plates were read immediately after on an Envision Fluorescence reader (Perkin Elmer) with excitation at 535 nm and emission at 630 nm. Test compound titration curves were fitted to a four-parameter sigmoidal curve after normalizing the effect of the test compound to the effect of the positive control (4 10^−4 M PEP0005/ingenol mebutate). AbsEC50 denotes the concentration of test compound producing 50% effect.

Setting [4] is: Leukocyte, 40 min, read-out: Neutrophil oxidative burst Rel EC50 range, PMN from buffy coats, 40 min at RT, hydroethidine fluorescence.

Structures are written as SMILES. Like-named read-outs stand apart in the source and are kept apart here.

On to `CC1=C[C@]23C(=O)[C@@H](C=C(CO)[C@@H](O)[C@]2(O)[C@H]1OC(=O)N1CCCC1C(F)(F)F)[C@H]1[C@@H](C[C@H]3C)C1(C)C` (single isomer, unassigned; isomer b) [Compound 741, Ingenol 3-(2-trifluoromethyl-pyrrolidine-1-carboxylate) (ISOMER B)], for which the EC50 (in general, the midpoint of the concentration-response curve) in experiment [1] (HeKa cells, 6 h at 37° C., IL-8 by MSD assay, normalized to 1.5×10^−7 M PEP0005) is 20 to 100 nM; in experiment [2] (read-out: Neutrophil oxidative burst Rel EC50 range, PMN from buffy coats, 40 min at RT, hydroethidine fluorescence), 20 to 100 nM; in experiment [3] it was above 350000 nM.
In the case of `CC1=C[C@]23C(=O)[C@@H](C=C(CO)[C@@H](O)[C@]2(O)[C@H]1OC(=O)c1c(-c2c(F)cccc2Cl)noc1C)[C@H]1[C@@H](C[C@H]3C)C1(C)C` [Compound 501, Ingenol 3-(5-methyl-3-(2-chloro-6-fluoro-phenyl)-isoxazole-4-carboxylate)], the EC50 in experiment [1] (Homo sapiens, HEKa, 6 h) is below 20 nM; in experiment [2] (setting [4]) it was 20 to 100 nM; in experiment [3], below 150000 nM.
With `CC1=C[C@]23C(=O)[C@@H](C=C(CO)[C@@H](O)[C@]2(O)[C@H]1OC(=O)c1c(-c2ccccc2)noc1C)[C@H]1[C@@H](C[C@H]3C)C1(C)C` [Compound 502, Ingenol 3-(5-methyl-3-phenyl-isoxazole-4-carboxylate)], the EC50 in experiment [1] (Homo sapiens, HEKa, 6 h) is below 20 nM; in experiment [2] (setting [4]) it was below 20 nM; in experiment [3], below 150000 nM.
As for `CC1=C[C@]23C(=O)[C@@H](C=C(CO)[C@@H](O)[C@]2(O)[C@H]1OC(=O)c1ccnn1-c1ccccc1)[C@H]1[C@@H](C[C@H]3C)C1(C)C` [Compound 505, Ingenol 3-(2-phenylpyrazole-3-carboxylate)], the EC50 in experiment [1] (Homo sapiens, HEKa, 6 h) was below 20 nM; in experiment [2] (setting [4]), below 20 nM; in experiment [3], below 150000 nM.
Regarding `CC1=C[C@]23C(=O)[C@@H](C=C(CO)[C@@H](O)[C@]2(O)[C@H]1OC(=O)c1nn(C)c2ccccc12)[C@H]1[C@@H](C[C@H]3C)C1(C)C` [Compound 506, Ingenol 3-(1-methylindazole-3-carboxylate)], the EC50 in experiment [1] (Homo sapiens, HEKa, 6 h) is below 20 nM; in experiment [2] (setting [4]), below 20 nM; in experiment [3] it was below 150000 nM.
As for `CCc1noc(C)c1C(=O)O[C@H]1C(C)=C[C@]23C(=O)[C@@H](C=C(CO)[C@@H](O)[C@]12O)[C@H]1[C@@H](C[C@H]3C)C1(C)C` [Compound 507, Ingenol 3-(3-ethyl-5-methyl-isoxazole-4-carboxylate)], the EC50 in experiment [1] (Homo sapiens, HEKa, 6 h) was below 20 nM; in experiment [2] (setting [4]), below 20 nM; in experiment [3], 150000 to 350000 nM.
For `CC1=C[C@]23C(=O)[C@@H](C=C(CO)[C@@H](O)[C@]2(O)[C@H]1OC(=O)c1c(C)noc1C)[C@H]1[C@@H](C[C@H]3C)C1(C)C` [Compound 508, Ingenol 3-(3-methyl-5-methyl-isoxazole-4-carboxylate)], the EC50 in experiment [1] (Homo sapiens, HEKa, 6 h) was below 20 nM; in experiment [2] (setting [4]) it was below 20 nM; in experiment [3], 150000 to 350000 nM.
In the case of `CC1=C[C@]23C(=O)[C@@H](C=C(CO)[C@@H](O)[C@]2(O)[C@H]1OC(=O)c1sccc1-c1ccccc1)[C@H]1[C@@H](C[C@H]3C)C1(C)C` [Compound 510, Ingenol 3-(3-phenylthiophene-2-carboxylate)], the EC50 in experiment [1] (Homo sapiens, HEKa, 6 h) is below 20 nM; in experiment [2] (setting [4]), 20 to 100 nM; in experiment [3] it was below 150000 nM.
With `CC1=C[C@]23C(=O)[C@@H](C=C(CO)[C@@H](O)[C@]2(O)[C@H]1OC(=O)c1cnnc2ccccc12)[C@H]1[C@@H](C[C@H]3C)C1(C)C` [Compound 514, Ingenol 3-(cinnoline-4-carboxylate)], the EC50 in experiment [1] (Homo sapiens, HEKa, 6 h) was above 100 nM; in experiment [2] (setting [4]), above 100 nM; in experiment [3] it was below 150000 nM.
`CC1=C[C@]23C(=O)[C@@H](C=C(CO)[C@@H](O)[C@]2(O)[C@H]1OC(=O)c1ncoc1-c1ccccc1)[C@H]1[C@@H](C[C@H]3C)C1(C)C` [Compound 516, Ingenol 3-(5-phenyloxazole-4-carboxylate)]: the EC50 in experiment [1] (Homo sapiens, HEKa, 6 h) is 20 to 100 nM; in experiment [2] (setting [4]), below 20 nM; in experiment [3], below 150000 nM.
In the case of `CC1=C[C@]23C(=O)[C@@H](C=C(CO)[C@@H](O)[C@]2(O)[C@H]1OC(=O)c1noc2ccccc12)[C@H]1[C@@H](C[C@H]3C)C1(C)C` [Compound 517, Ingenol 3-(1,2-benzoxazole-3-carboxylate)], the EC50 was above 100 nM in experiment [1] (Homo sapiens, HEKa, 6 h); 20 to 100 nM in experiment [2] (setting [4]); below 150000 nM in experiment [3].
In the case of `CC1=C[C@]23C(=O)[C@@H](C=C(CO)[C@@H](O)[C@]2(O)[C@H]1OC(=O)c1c(C(C)C)noc1C)[C@H]1[C@@H](C[C@H]3C)C1(C)C` [Compound 518, Ingenol 3-(3-isopropyl-5-methyl-isoxazole-4-carboxylate)], the EC50 in experiment [1] (Homo sapiens, HEKa, 6 h) was below 20 nM; in experiment [2] (setting [4]), below 20 nM; in experiment [3] it was below 150000 nM.
Regarding `COc1ccccc1-c1noc(C)c1C(=O)O[C@H]1C(C)=C[C@]23C(=O)[C@@H](C=C(CO)[C@@H](O)[C@]12O)[C@H]1[C@@H](C[C@H]3C)C1(C)C` [Compound 519, Ingenol 3-(3-(2-methoxyphenyl)-5-methyl-isoxazole-4-carboxylate)], the EC50 in experiment [1] (Homo sapiens, HEKa, 6 h) is below 20 nM; in experiment [2] (setting [4]), below 20 nM; in experiment [3], below 150000 nM.
Consider `CC1=C[C@]23C(=O)[C@@H](C=C(CO)[C@@H](O)[C@]2(O)[C@H]1OC(=O)c1c(Cl)cnn1C)[C@H]1[C@@H](C[C@H]3C)C1(C)C` [Compound 522, Ingenol 3-(4-chloro-2-methyl-pyrazole-3-carboxylate)], for which the EC50 in experiment [1] (Homo sapiens, HEKa, 6 h) was below 20 nM; in experiment [2] (setting [4]) it was below 20 nM; in experiment [3], 150000 to 350000 nM.
For `CC1=C[C@]23C(=O)[C@@H](C=C(CO)[C@@H](O)[C@]2(O)[C@H]1OC(=O)c1ncncc1Br)[C@H]1[C@@H](C[C@H]3C)C1(C)C` [Compound 523, Ingenol 3-(5-bromopyrimidine-4-carboxylate)], the EC50 in experiment [1] (Homo sapiens, HEKa, 6 h) is above 100 nM; in experiment [2] (setting [4]), 20 to 100 nM; in experiment [3] it was above 350000 nM.
For `CC1=C[C@]23C(=O)[C@@H](C=C(CO)[C@@H](O)[C@]2(O)[C@H]1OC(=O)c1ncsc1C)[C@H]1[C@@H](C[C@H]3C)C1(C)C` [Compound 525, Ingenol 3-(5-methylthiazole-4-carboxylate)], the EC50 is above 100 nM in experiment [1] (Homo sapiens, HEKa, 6 h); 20 to 100 nM in experiment [2] (setting [4]); above 350000 nM in experiment [3].
